Data as given in US20230181556A1, “USE OF PSYCHOTROPIC DRUGS FOR THE TREATMENT OF CORONAVIRUS INFECTIONS” (priority 2020, published 2023).
Entries after “also recorded” stand apart in the source; their conditions may differ.

Key:
[1] = system: viruses as listed per drug; conditions: virus or effect named in the literature; cited from earlier work
Vero-E6 cells = assay: cytotoxicity in mock infected cells; assay type: cell-based; conditions: same experiment (10 μM, 5 μM and 2 μM)
Method: One day prior to the assay, Vero-E6 cells (ATCC® CRL-1586) were plated in a 96-wells flat bottom tissue culture treated plate at a density of 2×10^4 cells/well. On the day of the assay, Vero-E6 cells were pre-treated with the different concentration (i.e. 10 μM, 5 μM and 2 μM) of the indicated drugs diluted in Dulbecco's Modified Eagles Medium (DMEM). After 1 h, the cells were infected with 50 μl of a viral inoculum at 1×10^3 TCID50/ml and incubated for 2 h at 37° C. to allow infection. Then, the virus-drug mixture was removed, cells were rinsed 3 times with PBS and were further cultured with fresh drug-containing medium (DMEM 5% FBS) for 3 days until microscopic examination was performed. Cytotoxicity of the tested drugs were determined in the same experiment in mock infected cells. The half maximal inhibitory concentration (IC50) were analyzed by non-linear regression using a four-parameter dosage-response variable slope model with the GraphPad Prism 8.0.2 software (GraphPad Software, USA).

phospholipidosis = conditions: cited from earlier work
[2] = under 20 μM concentrations; Hou et al.; cited from earlier work
[3] = molecular target: spike protein-ACE2 interaction (Homo sapiens, UniProt Q9BYF1); conditions: Hou et al., Chemico-Biological Interactions 338 (2021) 109420; cited from earlier work
Chain of spike protein-ACE2 interaction (Q9BYF1 18-805): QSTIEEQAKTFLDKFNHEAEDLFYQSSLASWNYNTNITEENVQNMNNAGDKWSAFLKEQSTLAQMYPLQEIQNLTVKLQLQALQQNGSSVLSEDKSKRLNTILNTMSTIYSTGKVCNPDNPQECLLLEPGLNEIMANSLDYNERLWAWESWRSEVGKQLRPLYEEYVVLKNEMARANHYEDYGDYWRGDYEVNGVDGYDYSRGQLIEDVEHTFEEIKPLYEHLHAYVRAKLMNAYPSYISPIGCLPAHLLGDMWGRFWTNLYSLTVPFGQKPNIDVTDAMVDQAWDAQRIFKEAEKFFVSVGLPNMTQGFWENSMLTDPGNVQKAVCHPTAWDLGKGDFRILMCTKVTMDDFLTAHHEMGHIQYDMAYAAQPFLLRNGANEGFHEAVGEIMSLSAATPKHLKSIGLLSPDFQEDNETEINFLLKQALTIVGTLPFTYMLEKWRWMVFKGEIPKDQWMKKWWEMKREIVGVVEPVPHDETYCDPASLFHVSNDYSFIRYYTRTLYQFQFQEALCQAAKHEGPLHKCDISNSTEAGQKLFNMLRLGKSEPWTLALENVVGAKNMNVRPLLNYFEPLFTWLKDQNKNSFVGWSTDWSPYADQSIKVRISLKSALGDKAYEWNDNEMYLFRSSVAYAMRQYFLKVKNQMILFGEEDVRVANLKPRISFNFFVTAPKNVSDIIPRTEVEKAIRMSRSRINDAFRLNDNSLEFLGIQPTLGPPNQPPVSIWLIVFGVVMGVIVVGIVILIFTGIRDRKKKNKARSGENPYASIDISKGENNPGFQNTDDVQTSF

CN(C)CCCN1c2ccccc2CCc2ccc(Cl)cc21 [Clomipramine]
Examples of published in vitro antiviral activity [1]: MERS, SARS

CCN(CC)CCOc1ccc(C(=C(Cl)c2ccccc2)c2ccccc2)cc1 [Clomifene]
Examples of published in vitro antiviral activity [1]: Ebola, HCV

O=C(CCCN1CCC(O)(c2ccc(Cl)cc2)CC1)c1ccc(F)cc1 [Haloperidol]
Examples of published in vitro antiviral activity [1]: SARS-CoV-2

CN1CCCC(n2nc(Cc3ccc(Cl)cc3)c3ccccc3c2=O)CC1 (stereo not drawn) [Azelastine]
Cytotoxicity (Vero-E6 cells): not found to be cytotoxic

COc1ccc2[nH]cc(CCNC(C)=O)c2c1 [Melatonin]
Examples of published in vitro antiviral activity [1]: Possible roles

CCN(CCO)CCCC(C)Nc1ccnc2cc(Cl)ccc12 (stereo not drawn) [Hydroxyl-chloroquine]
Examples of published in vitro antiviral activity [1]: SARS-Cov-2

CN[C@H]1CC[C@@H](c2ccc(Cl)c(Cl)c2)c2ccccc21 [Sertraline]
Examples of published in vitro antiviral activity [1]: Ebola virus; also recorded: Zika Virus; also recorded: HIV in vivo
PLD, known (phospholipidosis): PLD compound

Clc1ccc2c(c1)CCc1cccnc1C2=C1CCNCC1 [Desloratadine]
Cytotoxicity [2]: No cytotoxicity was observed
Cytotoxicity (Vero-E6 cells): not found to be cytotoxic

CCOC(=O)N1CCC(=C2c3ccc(Cl)cc3CCc3cccnc32)CC1 [Loratadine]
Cytotoxicity [2]: No cytotoxicity was observed
block of spike protein-ACE2 interaction [3]: efficient to block spike protein-ACE2 interaction

CN(C)CCCN1c2ccccc2Sc2ccc(Cl)cc21 [Chlorpromazine]
Examples of published in vitro antiviral activity [1]: MERS, SARS
PLD, known (phospholipidosis): PLD agent

CCN(CC)CCCC(C)Nc1ccnc2cc(Cl)ccc12 (stereo not drawn) [Chloroquine]
Examples of published in vitro antiviral activity [1]: MERS, SARS,; also recorded: Filovirus
PLD, known (phospholipidosis): PLD compound

O=C(O)COCCN1CCN(C(c2ccccc2)c2ccc(Cl)cc2)CC1 (stereo not drawn) [Cetirizine]
Examples of published in vitro antiviral activity [1]: HRV (Antiviral

Clc1ccc(C(OCCN2CCCCC2)c2ccccc2)cc1 (stereo not drawn) [Cloperastine]
Examples of published in vitro antiviral activity [1]: SARS-CoV-2

CC(CN1c2ccccc2Sc2ccccc21)N(C)C (stereo not drawn) [Promethazine]
Examples of published in vitro antiviral activity [1]: Ebola (Sci Transl Med
Cytotoxicity (Vero-E6 cells): not found to be cytotoxic

CN(C)CCOC(C)(c1ccccc1)c1ccc(Cl)cc1 (stereo not drawn) [Chlorphenoxamine]
Examples of published in vitro antiviral activity [1]: MERS, SARS
